{"source": "patent US20240262826A1", "about": "“WILD TYPE KIT INHIBITORS” (Blueprint Medicines Corporation, priority 2022, published 2024)", "data": [{"target": "wild type c-kit (Homo sapiens (Human), UniProt P10721)", "sequence (P10721 26-976)": "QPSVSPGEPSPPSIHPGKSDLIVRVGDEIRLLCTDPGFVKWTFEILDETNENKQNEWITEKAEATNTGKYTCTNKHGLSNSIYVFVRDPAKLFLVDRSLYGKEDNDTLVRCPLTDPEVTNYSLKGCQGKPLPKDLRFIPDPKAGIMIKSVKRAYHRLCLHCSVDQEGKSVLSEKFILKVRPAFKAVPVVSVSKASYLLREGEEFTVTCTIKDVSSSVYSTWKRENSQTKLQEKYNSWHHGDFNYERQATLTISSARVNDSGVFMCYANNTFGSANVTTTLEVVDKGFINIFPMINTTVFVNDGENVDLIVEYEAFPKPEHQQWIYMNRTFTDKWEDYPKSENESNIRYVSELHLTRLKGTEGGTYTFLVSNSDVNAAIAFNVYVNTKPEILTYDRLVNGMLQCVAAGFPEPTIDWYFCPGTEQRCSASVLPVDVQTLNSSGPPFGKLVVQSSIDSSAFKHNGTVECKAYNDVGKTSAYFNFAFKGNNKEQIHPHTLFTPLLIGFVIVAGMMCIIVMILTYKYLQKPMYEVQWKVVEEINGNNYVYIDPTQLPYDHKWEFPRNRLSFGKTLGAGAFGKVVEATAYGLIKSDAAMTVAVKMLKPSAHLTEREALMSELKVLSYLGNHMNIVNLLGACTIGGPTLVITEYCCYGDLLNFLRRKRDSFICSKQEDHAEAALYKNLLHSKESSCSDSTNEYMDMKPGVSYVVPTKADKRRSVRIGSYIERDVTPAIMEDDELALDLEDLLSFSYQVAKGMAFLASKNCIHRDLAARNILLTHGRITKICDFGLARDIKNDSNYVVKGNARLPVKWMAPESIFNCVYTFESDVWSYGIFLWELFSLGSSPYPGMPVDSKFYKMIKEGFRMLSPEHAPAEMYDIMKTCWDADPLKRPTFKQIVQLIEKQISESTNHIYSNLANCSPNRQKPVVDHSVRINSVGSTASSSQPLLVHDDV", "assay": "PathScan phospho c-kit (Tyr719) sandwich ELISA in SCF-stimulated M-07e cells (pKIT assay)", "assay_type": "cell-based", "conditions": "ELISA assay (values not marked *)", "from_the_text": "The ability of compounds of the disclosure (described herein as test compounds) to inhibit autophosphorylation of wild type c-kit was measures using either a PathScan phospho c-kit (Tyr719) sandwich ELISA (CST #7298) or a Phospho c-Kit (Tyr721) Assay Whole Cell Lysate Kit (MSD: 515DPD/catalog number K15119D-2).\nFor the PathScan phospho c-kit (Tyr719) sandwich ELISA: M-07e cells were resuspended at 2×10^6 cells/mL in phenol red free, serum-free, GM-CSF-free Iscove's Modified Dulbecco's Medium (IMDM) media with 1% Penicillin-Streptomycin. The cells were then dispensed into the wells of a U-bottom, 96-well plate at 50 uL per well using a multichannel pipet. The plate was allowed to incubate at 37° C. in a humidified tissue culture incubator for 4 hours.\nAfter 4 hours of incubation, each well was dosed with 6.25 uL of test compound at a final DMSO concentration of 0.25% for 60 min at 37° C. to generate an 8-point dose concentration series of test compounds in duplicate. Cells were then incubated for 1 hour at 37° C. in a humidified tissue culture incubator. Next, human SCF at 500 ng/mL was added to the appropriate wells at 6.25 uL/well and the plate was shaken at 450 rpm at room temperature for 10 minutes. AlphaLISA 5× Lysis Buffer supplemented with 1× protease and phosphatase inhibitor was then added at 16 uL/well. The plate was sealed with an adherent cover and shaken at 4° C. at 600 rpm for 30 minutes. After this period of lysis, the plate was stored at −80° C.\nWhen the 96-well plate containing M07e lysates was ready to be processed, the plate was brought to room temperature and 40 μl from each well was transferred to the wells of a PathScan Phospho-c-Kit (Tyr719) Sandwich ELISA plate (CST, Catalog #7298). The ELISA plate was sealed with an adherent cover and incubated for 2 hours at 37° C. Next, the wells were washed 4 times with the provided 1× Wash Buffer, and 100 uL/well of reconstituted Detection Antibody was added to each well, the plate sealed with an adherent cover, and incubated at 37° C. for 1 hour. The wash procedure was repeated and 100 uL/well of reconstituted HRP-Linked secondary antibody was added. The plate was sealed with an adherent cover and incubated at 37° C. for 1 hour. The wash procedure was repeated and 100 uL/well of TMB Substrate was added. The plate was incubated for 10 minutes at room temperature or until the positive reaction elicited a blue color in the appropriate wells. 100 uL/well of STOP solution was added and shaken gently for a few seconds a microplate reader or conventional spectrophotometer e.g., a Perkin Elmer Envision multimode plate reader, part #2105-0010.\nAn IC50 was calculated using a 4-parameter logistic nonlinear regression.", "units": {"IC50": "nM"}, "values": [{"smiles": "Cc1nnn(-c2ccc(C)c(NC(=O)c3cnn4ccc(Nc5cn[nH]c5)cc34)c2)n1", "note": "[Example 231, 5-((1H-pyrazol-4-yl)amino)-N-(2-methyl-5-(5-methyl-2H-tetrazol-2-yl)phenyl)pyrazolo[1,5-a]pyridine-3-carboxamide]", "IC50": 3.6}, {"smiles": "COC(=O)N1CC(n2nnc(-c3ccc(C)c(NC(=O)c4cnn5ccc(N6CCC[C@H](O)C6)cc45)c3)n2)C1", "note": "[Example 70, methyl (S)-3-(5-(3-(5-(3-hydroxypiperidin-1-yl)pyrazolo[1,5-a]pyridine-3-carboxamido)-4-methylphenyl)-2H-tetrazol-2-yl)azetidine-1-carboxylate]", "IC50": 53.1}, {"smiles": "CCOC(=O)N1CC(n2nnc(-c3ccc(C)c(NC(=O)c4cnn5ccc(N6CCOCC6)cc45)c3)n2)C1", "note": "[Example 77, ethyl 3-(5-(4-methyl-3-(5-morpholinopyrazolo[1,5-a]pyridine-3-carboxamido)phenyl)-2H-tetrazol-2-yl)azetidine-1-carboxylate]", "IC50": 60.7}, {"smiles": "Cc1ccc(-c2nnn(C)n2)cc1NC(=O)c1cnn2cc(-c3cnn(CC(C)(C)O)c3)cc(F)c12", "note": "[Example 214, 4-fluoro-6-(1-(2-hydroxy-2-methylpropyl)-1H-pyrazol-4-yl)-N-(2-methyl-5-(2-methyl-2H-tetrazol-5-yl)phenyl)pyrazolo[1,5-a]pyridine-3-carboxamide]", "IC50": 2.7}, {"smiles": "CCn1nnc(-c2cc(NC(=O)c3cnn4ccc(-c5cn(C[C@H](O)COC)nc5C)cc34)c(Cl)cc2F)n1", "note": "[Example 282, (S)—N-(2-chloro-5-(2-ethyl-2H-tetrazol-5-yl)-4-fluorophenyl)-5-(1-(2-hydroxy-3-methoxypropyl)-3-methyl-1H-pyrazol-4-yl)pyrazolo[1,5-a]pyridine-3-carboxamide]", "IC50": 0.2}, {"smiles": "Cc1nn([C@H](C)[C@@H](C)O)cc1-c1ccn2ncc(C(=O)Nc3cc(-c4nnn(C5CC5)n4)c(F)cc3Cl)c2c1", "note": "(single isomer, unassigned) [Example 287, N-(2-chloro-5-(2-cyclopropyl-2H-tetrazol-5-yl)-4-fluorophenyl)-5-(1-((2R,3R)-3-hydroxybutan-2-yl)-3-methyl-1H-pyrazol-4-yl)pyrazolo[1,5-a]pyridine-3-carboxamide or N-(2-chloro-5-(2-cyclopropyl-2H-tetrazol-5-yl)-4-fluorophenyl)-5-(1-((2S,3S)-3-hydroxybutan-2-yl)-3-methyl-1H-pyrazol-4-yl)pyrazolo[1,5-a]pyridine-3-carboxamide]", "IC50": 0.9}, {"smiles": "Cc1cc(F)c(-c2nnn(C3CC3)n2)cc1NC(=O)c1cnn2ccc(-c3cn(C[C@@H](C)O)nc3C)cc12", "note": "[Example 255, (R)-N-(5-(2-cyclopropyl-2H-tetrazol-5-yl)-4-fluoro-2-methylphenyl)-5-(1-(2-hydroxypropyl)-3-methyl-1H-pyrazol-4-yl)pyrazolo[1,5-a]pyridine-3-carboxamide]", "IC50": 0.3}, {"smiles": "CCCS(=O)(=O)N1CC(n2nnc(-c3ccc(C)c(NC(=O)c4cnn5ccccc45)c3)n2)C1", "note": "[Example 174]", "IC50": 28.5}, {"smiles": "Cc1ccc(-n2nnc(C3CC3F)n2)cc1NC(=O)c1cnn2ccc(-c3cnn(CC(C)(C)O)c3)cc12", "note": "(centres unmarked) [Example 222, N-(5-(5-(2-fluorocyclopropyl)-2H-tetrazol-2-yl)-2-methylphenyl)-5-(1-(2-hydroxy-2-methylpropyl)-1H-pyrazol-4-yl)pyrazolo[1,5-a]pyridine-3-carboxamide]", "IC50": 2.7}, {"smiles": "COC(=O)N1CC(n2nnc(-c3ccc(Cl)c(NC(=O)c4cnn5cc(N6CCOCC6)ccc45)c3)n2)C1", "note": "[Example 163, methyl 3-(5-(4-chloro-3-(6-morpholinopyrazolo[1,5-a]pyridine-3-carboxamido)phenyl)-2H-tetrazol-2-yl)azetidine-1-carboxylate]", "IC50": 9.3}, {"smiles": "CCNc1ccn2ncc(C(=O)Nc3cc(-c4nnn(C5CN(C(=O)OC)C5)n4)ccc3C)c2c1", "note": "[Example 127, methyl 3-(5-(3-(5-(ethylamino)pyrazolo[1,5-a]pyridine-3-carboxamido)-4-methylphenyl)-2H-tetrazol-2-yl)azetidine-1-carboxylate]", "IC50": 30.2}, {"smiles": "CNc1ccn2ncc(C(=O)Nc3cc(-n4ncc(C5CN(C(=O)OC)C5)n4)ccc3C)c2c1", "note": "[Example 138, methyl 3-(2-(4-methyl-3-(5-(methylamino)pyrazolo[1,5-a]pyridine-3-carboxamido)phenyl)-2H-1,2,3-triazol-4-yl)azetidine-1-carboxylate]", "IC50": 13.4}, {"smiles": "COC(=O)N1CC(n2nnc(-c3cc(NC(=O)c4cnn5cc(OCCO)ccc45)c(C)cc3F)n2)C1", "note": "[Example 223, methyl 3-(5-(2-fluoro-5-(6-(2-hydroxyethoxy)pyrazolo[1,5-a]pyridine-3-carboxamido)-4-methylphenyl)-2H-tetrazol-2-yl)azetidine-1-carboxylate]", "IC50": 23.4}, {"smiles": "Cc1ccc(-c2nnn(C)n2)cc1NC(=O)c1cnn2ccc(-c3cn(CCO)nc3C)cc12", "note": "[Example 228, 5-(1-(2-hydroxyethyl)-3-methyl-1H-pyrazol-4-yl)-N-(2-methyl-5-(2-methyl-2H-tetrazol-5-yl)phenyl)pyrazolo[1,5-a]pyridine-3-carboxamide]", "IC50": 1.5}, {"smiles": "COC(=O)N1CC(n2nnc(-c3ccc(C)c(NC(=O)c4cnn5ccc(OCCO)cc45)c3)n2)C1", "note": "[Example 199, methyl 3-(5-(3-(5-(2-hydroxyethoxy)pyrazolo[1,5-a]pyridine-3-carboxamido)-4-methylphenyl)-2H-tetrazol-2-yl)azetidine-1-carboxylate]", "IC50": 29.6}, {"smiles": "[2H]C([2H])([2H])N1CCN(c2ccn3ncc(C(=O)Nc4cc(-n5ncc(C6CN(C(=O)OC)C6)n5)ccc4C)c3c2)CC1", "note": "[Example 82, methyl 3-(2-(4-methyl-3-(5-(4-(methyl-d3)piperazin-1-yl)pyrazolo[1,5-a]pyridine-3-carboxamido)phenyl)-2H-1,2,3-triazol-4-yl)azetidine-1-carboxylate]", "IC50": 23.4}, {"smiles": "Cc1nn(C[C@H](O)CO)c(C)c1-c1ccn2ncc(C(=O)Nc3cc(-c4nnn(C5CC5)n4)ccc3Cl)c2c1", "note": "[Example 275, (S)-N-(2-chloro-5-(2-cyclopropyl-2H-tetrazol-5-yl)phenyl)-5-(1-(2,3-dihydroxypropyl)-3,5-dimethyl-1H-pyrazol-4-yl)pyrazolo[1,5-a]pyridine-3-carboxamide]", "IC50": 0.1}, {"smiles": "Cc1ccc(-c2nnn(C3CC(F)(F)C3)n2)cc1NC(=O)c1cnn2ccc(NCC(F)(F)CO)cc12", "note": "[Example 102, 5-((2,2-difluoro-3-hydroxypropyl)amino)-N-(5-(2-(3,3-difluorocyclobutyl)-2H-tetrazol-5-yl)-2-methylphenyl)pyrazolo[1,5-a]pyridine-3-carboxamide]", "IC50": 2.6}, {"smiles": "Cc1ccc(-c2nnn(C3CN(S(=O)(=O)C4CCOC4)C3)n2)cc1NC(=O)c1cnn2ccccc12", "note": "(centres unmarked) [Example 175, N-(2-methyl-5-(2-(1-((tetrahydrofuran-3-yl)sulfonyl)azetidin-3-yl)-2H-tetrazol-5-yl)phenyl)pyrazolo[1,5-a]pyridine-3-carboxamide]", "IC50": 77.8}, {"smiles": "COC(=O)N1CC(n2nnc(-c3ccc(C)c(NC(=O)c4cnn5ccc(N6CCN(CC(F)F)CC6)cc45)c3)n2)C1", "note": "[Example 73, methyl 3-(5-(3-(5-(4-(2,2-difluoroethyl)piperazin-1-yl)pyrazolo[1,5-a]pyridine-3-carboxamido)-4-methylphenyl)-2H-tetrazol-2-yl)azetidine-1-carboxylate]", "IC50": 46.6}, {"smiles": "COC(=O)N1CC(c2cnn(-c3ccc(C)c(NC(=O)c4cnn5cc(N6CCOCC6)ccc45)c3)n2)C1", "note": "[Example 160, methyl 3-(2-(4-methyl-3-(6-morpholinopyrazolo[1,5-a]pyridine-3-carboxamido)phenyl)-2H-1,2,3-triazol-4-yl)azetidine-1-carboxylate]", "IC50": 14.9}, {"smiles": "COCCNc1ccn2ncc(C(=O)Nc3cc(-c4nnn(C)n4)ccc3C)c2c1", "note": "[Example 87, 5-((2-methoxyethyl)amino)-N-(2-methyl-5-(2-methyl-2H-tetrazol-5-yl)phenyl)pyrazolo[1,5-a]pyridine-3-carboxamide]", "IC50": 34.5}, {"smiles": "Cc1ccc(-c2nnn(CCOC(C)C)n2)cc1NC(=O)c1cnn2ccccc12", "note": "[Example 11, N-(5-(2-(2-isopropoxyethyl)-2H-tetrazol-5-yl)-2-methylphenyl)pyrazolo[1,5-a]pyridine-3-carboxamide]", "IC50": 2.5}]}]}
